Test results taken from ChEMBL document CHEMBL5463729, “Data for DCP probe BAY 1753011” (2023).

Legend:
[1] = biological target: Beta-2 adrenergic receptor (Homo sapiens) (UniProt P07550); conditions: Compound concentration 10.0 uM
[2] = biological target: Dual specificity tyrosine-phosphorylation-regulated kinase 1B (Homo sapiens) (UniProt Q9Y463); assay: Inhibition of DYRK1B(h) at 10.0 µM in the Eurofins Kinase panel; conditions: Compound concentration 10.0 uM
[3] = biological target: MAP/microtubule affinity-regulating kinase 3 (Homo sapiens) (UniProt P27448); assay: Inhibition of MARK3(h) at 10.0 µM in the Eurofins Kinase panel; conditions: Compound concentration 10.0 uM
[4] = biological target: Focal adhesion kinase 1 (Homo sapiens) (UniProt Q05397); assay: Inhibition of FAK(h) at 10.0 µM in the Eurofins Kinase panel; conditions: Compound concentration 10.0 uM
[5] = biological target: Sigma intracellular receptor 2 (Homo sapiens) (UniProt Q5BJF2); conditions: Compound concentration 10.0 uM
[6] = biological target: Serine/threonine-protein kinase 10 (Homo sapiens) (UniProt O94804); assay: Inhibition of LOK(h) at 10.0 µM in the Eurofins Kinase panel; conditions: Compound concentration 10.0 uM
[7] = biological target: Cyclin-dependent kinase-like 3 (Homo sapiens) (UniProt Q8IVW4); assay: Inhibition of CDKL3(h) at 10.0 µM in the Eurofins Kinase panel; conditions: Compound concentration 10.0 uM
[8] = biological target: Homeodomain-interacting protein kinase 3 (Homo sapiens) (UniProt Q9H422); assay: Inhibition of HIPK3(h) at 10.0 µM in the Eurofins Kinase panel; conditions: Compound concentration 10.0 uM
[9] = biological target: Insulin receptor (Homo sapiens) (UniProt P06213); assay: Inhibition of IR(h), activated at 10.0 µM in the Eurofins Kinase panel; conditions: Compound concentration 10.0 uM
[10] = biological target: Ephrin type-B receptor 3 (Homo sapiens) (UniProt P54753); assay: Inhibition of EphB3(h) at 10.0 µM in the Eurofins Kinase panel; conditions: Compound concentration 10.0 uM
[11] = biological target: T1, cGMP-dependent protein kinase 1 (Homo sapiens) (UniProt Q13976); assay: Inhibition of PKG1alpha(h) at 10.0 µM in the Eurofins Kinase panel; conditions: Compound concentration 10.0 uM
T1 sequence (whole entry): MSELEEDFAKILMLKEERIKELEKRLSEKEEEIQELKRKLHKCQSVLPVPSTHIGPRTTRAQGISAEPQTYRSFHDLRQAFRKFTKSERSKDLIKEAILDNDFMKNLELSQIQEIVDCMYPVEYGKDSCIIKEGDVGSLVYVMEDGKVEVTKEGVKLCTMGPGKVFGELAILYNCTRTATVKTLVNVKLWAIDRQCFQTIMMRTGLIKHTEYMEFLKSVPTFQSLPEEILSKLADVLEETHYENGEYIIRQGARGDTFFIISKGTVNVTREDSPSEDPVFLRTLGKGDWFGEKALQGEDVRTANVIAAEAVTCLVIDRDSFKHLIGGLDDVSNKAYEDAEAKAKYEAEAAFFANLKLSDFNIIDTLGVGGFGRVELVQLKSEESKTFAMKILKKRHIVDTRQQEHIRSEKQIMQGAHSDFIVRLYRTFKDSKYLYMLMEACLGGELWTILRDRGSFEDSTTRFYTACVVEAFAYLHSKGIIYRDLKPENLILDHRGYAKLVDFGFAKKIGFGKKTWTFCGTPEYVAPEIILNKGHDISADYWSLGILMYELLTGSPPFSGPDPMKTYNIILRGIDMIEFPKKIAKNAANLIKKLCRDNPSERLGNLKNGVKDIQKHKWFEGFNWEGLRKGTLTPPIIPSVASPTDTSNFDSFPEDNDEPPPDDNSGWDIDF

[12] = biological target: Aurora kinase A (Homo sapiens) (UniProt O14965); assay: Inhibition of Aurora-A(h) at 10.0 µM in the Eurofins Kinase panel; conditions: Compound concentration 10.0 uM
[13] = biological target: Protein-tyrosine kinase 2-beta (Homo sapiens) (UniProt Q14289); assay: Inhibition of Pyk2(h) at 10.0 µM in the Eurofins Kinase panel; conditions: Compound concentration 10.0 uM
[14] = biological target: Mitogen-activated protein kinase 11 (Homo sapiens) (UniProt Q15759); assay: Inhibition of SAPK2b(h) at 10.0 µM in the Eurofins Kinase panel; conditions: Compound concentration 10.0 uM
[15] = biological target: Serine/threonine-protein kinase 33 (Homo sapiens) (UniProt Q9BYT3); assay: Inhibition of STK33(h) at 10.0 µM in the Eurofins Kinase panel; conditions: Compound concentration 10.0 uM
[16] = biological target: Tyrosine-protein kinase JAK1 (Homo sapiens) (UniProt P23458); assay: Inhibition of JAK1(h) at 10.0 µM in the Eurofins Kinase panel; conditions: Compound concentration 10.0 uM
[17] = biological target: Macrophage-stimulating protein receptor (Homo sapiens) (UniProt Q04912); assay: Inhibition of Ron(h) at 10.0 µM in the Eurofins Kinase panel; conditions: Compound concentration 10.0 uM
[18] = biological target: Ribosomal protein S6 kinase beta-2 (Homo sapiens) (UniProt Q9UBS0); assay: Inhibition of p70S6Kbeta(h) at 10.0 µM in the Eurofins Kinase panel; conditions: Compound concentration 10.0 uM
[19] = biological target: Myosin-IIIb (Homo sapiens) (UniProt Q8WXR4); assay: Inhibition of MYO3B(h) at 10.0 µM in the Eurofins Kinase panel; conditions: Compound concentration 10.0 uM
[20] = biological target: Adenosine receptor A2a (Homo sapiens) (UniProt P29274); conditions: Compound concentration 10.0 uM
[21] = biological target: Tyrosine-protein kinase receptor UFO (Homo sapiens) (UniProt P30530); assay: Inhibition of Axl(h) at 10.0 µM in the Eurofins Kinase panel; conditions: Compound concentration 10.0 uM
[22] = biological target: Homeodomain-interacting protein kinase 2 (Homo sapiens) (UniProt Q9H2X6); assay: Inhibition of HIPK2(h) at 10.0 µM in the Eurofins Kinase panel; conditions: Compound concentration 10.0 uM
[23] = biological target: Serine/threonine-protein kinase/endoribonuclease IRE1 (Homo sapiens) (UniProt O75460); assay: Inhibition of IRE1(h) at 10.0 µM in the Eurofins Kinase panel; conditions: Compound concentration 10.0 uM
[24] = biological target: Tyrosine-protein kinase Yes (Homo sapiens) (UniProt P07947); assay: Inhibition of Yes(h) at 10.0 µM in the Eurofins Kinase panel; conditions: Compound concentration 10.0 uM
[25] = biological target: Serine/threonine-protein kinase TAO1 (Homo sapiens) (UniProt Q7L7X3); assay: Inhibition of TAO1(h) at 10.0 µM in the Eurofins Kinase panel; conditions: Compound concentration 10.0 uM
[26] = biological target: Receptor-interacting serine/threonine-protein kinase 1 (Homo sapiens) (UniProt Q13546); assay: Inhibition of RIPK1(h) at 10.0 µM in the Eurofins Kinase panel; conditions: Compound concentration 10.0 uM
[27] = biological target: Serine/threonine-protein kinase 32C (Homo sapiens) (UniProt Q86UX6); assay: Inhibition of STK32C(h) at 10.0 µM in the Eurofins Kinase panel; conditions: Compound concentration 10.0 uM
[28] = biological target: Serine/threonine-protein kinase WNK3 (Homo sapiens) (UniProt Q9BYP7); assay: Inhibition of WNK3(h) at 10.0 µM in the Eurofins Kinase panel; conditions: Compound concentration 10.0 uM
[29] = biological target: Serine/threonine-protein kinase haspin (Homo sapiens) (UniProt Q8TF76); assay: Inhibition of Haspin(h) at 10.0 µM in the Eurofins Kinase panel; conditions: Compound concentration 10.0 uM
[30] = biological target: Glutamate receptor 2 (Homo sapiens) (UniProt P42262); conditions: Rattus norvegicus; Compound concentration 10.0 uM
[31] = biological target: Serine/threonine-protein kinase ULK2 (Homo sapiens) (UniProt Q8IYT8); assay: Inhibition of ULK2(h) at 10.0 µM in the Eurofins Kinase panel; conditions: Compound concentration 10.0 uM
Serine/threonine-protein kinase ULK2 (Homo sapiens), sequence (Q8IYT8 whole entry): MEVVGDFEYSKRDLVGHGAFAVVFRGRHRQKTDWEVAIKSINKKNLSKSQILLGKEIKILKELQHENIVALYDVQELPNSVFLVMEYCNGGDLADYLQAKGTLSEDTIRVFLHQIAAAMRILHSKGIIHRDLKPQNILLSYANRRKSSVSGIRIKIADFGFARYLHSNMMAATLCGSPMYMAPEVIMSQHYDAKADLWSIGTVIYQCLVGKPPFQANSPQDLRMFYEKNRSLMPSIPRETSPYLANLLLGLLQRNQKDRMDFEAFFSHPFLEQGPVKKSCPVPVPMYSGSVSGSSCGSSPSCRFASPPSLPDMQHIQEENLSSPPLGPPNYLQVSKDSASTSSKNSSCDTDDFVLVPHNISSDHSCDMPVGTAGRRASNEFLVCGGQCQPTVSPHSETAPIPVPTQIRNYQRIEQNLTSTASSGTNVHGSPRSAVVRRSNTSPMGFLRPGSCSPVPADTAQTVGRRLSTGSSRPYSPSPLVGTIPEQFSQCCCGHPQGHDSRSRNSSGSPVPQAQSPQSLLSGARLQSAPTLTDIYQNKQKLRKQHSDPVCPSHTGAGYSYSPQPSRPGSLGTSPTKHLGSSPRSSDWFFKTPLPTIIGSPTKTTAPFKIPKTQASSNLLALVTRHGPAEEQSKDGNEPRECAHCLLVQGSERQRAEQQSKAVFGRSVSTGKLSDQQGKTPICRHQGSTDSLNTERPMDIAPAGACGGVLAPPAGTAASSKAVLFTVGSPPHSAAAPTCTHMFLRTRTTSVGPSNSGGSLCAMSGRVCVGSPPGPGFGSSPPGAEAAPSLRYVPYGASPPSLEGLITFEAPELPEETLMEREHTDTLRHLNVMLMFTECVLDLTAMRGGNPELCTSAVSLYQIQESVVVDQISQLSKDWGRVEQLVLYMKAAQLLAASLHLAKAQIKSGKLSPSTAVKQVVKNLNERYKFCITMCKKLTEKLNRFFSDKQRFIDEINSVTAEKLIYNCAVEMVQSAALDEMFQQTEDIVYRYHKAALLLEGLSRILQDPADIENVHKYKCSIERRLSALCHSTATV

Sigma intracellular receptor 2 (Homo sapiens), sequence (Q5BJF2 whole entry): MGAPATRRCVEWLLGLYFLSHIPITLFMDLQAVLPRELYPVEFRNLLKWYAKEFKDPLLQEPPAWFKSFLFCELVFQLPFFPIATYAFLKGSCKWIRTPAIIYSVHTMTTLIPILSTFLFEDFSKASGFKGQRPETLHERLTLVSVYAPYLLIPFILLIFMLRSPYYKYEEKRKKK
Mitogen-activated protein kinase 11 (Homo sapiens), sequence (Q15759 whole entry): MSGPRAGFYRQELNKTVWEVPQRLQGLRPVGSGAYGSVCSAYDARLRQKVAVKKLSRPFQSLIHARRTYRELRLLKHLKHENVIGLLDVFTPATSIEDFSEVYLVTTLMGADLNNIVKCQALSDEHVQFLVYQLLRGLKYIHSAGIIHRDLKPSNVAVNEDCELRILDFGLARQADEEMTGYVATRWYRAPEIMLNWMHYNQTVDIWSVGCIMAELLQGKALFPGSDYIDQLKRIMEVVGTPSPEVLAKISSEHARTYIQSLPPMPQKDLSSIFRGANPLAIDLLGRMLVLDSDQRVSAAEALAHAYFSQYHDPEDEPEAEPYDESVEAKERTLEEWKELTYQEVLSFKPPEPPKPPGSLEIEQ
Macrophage-stimulating protein receptor (Homo sapiens), sequence (Q04912 25-304 limits assumed): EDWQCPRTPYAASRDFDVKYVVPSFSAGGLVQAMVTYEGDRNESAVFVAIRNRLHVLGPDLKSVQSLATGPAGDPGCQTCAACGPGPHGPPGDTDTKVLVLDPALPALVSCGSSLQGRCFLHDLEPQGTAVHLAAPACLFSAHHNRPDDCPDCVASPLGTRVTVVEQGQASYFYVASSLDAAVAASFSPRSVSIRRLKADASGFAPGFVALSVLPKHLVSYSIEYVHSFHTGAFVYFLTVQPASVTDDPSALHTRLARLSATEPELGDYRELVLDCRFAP
Macrophage-stimulating protein receptor (Homo sapiens), sequence (Q04912 310-1400 limits assumed): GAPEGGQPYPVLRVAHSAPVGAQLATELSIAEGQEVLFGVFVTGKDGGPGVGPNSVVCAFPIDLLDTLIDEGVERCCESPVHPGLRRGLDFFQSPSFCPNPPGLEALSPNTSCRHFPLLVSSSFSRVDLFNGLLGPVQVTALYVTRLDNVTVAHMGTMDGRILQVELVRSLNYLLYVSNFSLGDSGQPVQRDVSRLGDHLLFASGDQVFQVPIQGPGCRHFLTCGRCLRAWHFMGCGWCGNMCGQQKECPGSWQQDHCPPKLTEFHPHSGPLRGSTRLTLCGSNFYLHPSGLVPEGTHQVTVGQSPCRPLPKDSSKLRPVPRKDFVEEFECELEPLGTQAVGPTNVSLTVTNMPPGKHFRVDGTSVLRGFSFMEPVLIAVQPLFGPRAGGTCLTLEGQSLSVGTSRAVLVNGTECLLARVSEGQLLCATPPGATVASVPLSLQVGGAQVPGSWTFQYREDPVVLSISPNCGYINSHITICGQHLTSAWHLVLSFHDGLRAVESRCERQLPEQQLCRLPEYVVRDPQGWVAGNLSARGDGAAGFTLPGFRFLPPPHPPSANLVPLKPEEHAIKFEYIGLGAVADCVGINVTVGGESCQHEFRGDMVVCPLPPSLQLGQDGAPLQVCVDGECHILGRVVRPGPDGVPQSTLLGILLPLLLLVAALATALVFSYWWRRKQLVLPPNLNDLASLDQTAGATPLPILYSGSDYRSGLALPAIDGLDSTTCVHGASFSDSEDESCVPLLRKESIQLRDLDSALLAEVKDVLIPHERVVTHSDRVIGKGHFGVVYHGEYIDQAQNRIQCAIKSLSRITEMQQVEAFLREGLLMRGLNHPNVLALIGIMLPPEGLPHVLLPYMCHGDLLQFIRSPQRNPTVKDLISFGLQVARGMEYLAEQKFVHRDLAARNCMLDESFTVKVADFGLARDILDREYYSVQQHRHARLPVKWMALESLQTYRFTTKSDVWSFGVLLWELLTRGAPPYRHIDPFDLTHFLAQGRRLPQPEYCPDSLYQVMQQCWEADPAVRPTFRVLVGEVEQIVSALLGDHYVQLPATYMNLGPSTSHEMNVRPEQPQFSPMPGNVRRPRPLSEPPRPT
Insulin receptor (Homo sapiens), sequence (P06213 28-758 limits assumed): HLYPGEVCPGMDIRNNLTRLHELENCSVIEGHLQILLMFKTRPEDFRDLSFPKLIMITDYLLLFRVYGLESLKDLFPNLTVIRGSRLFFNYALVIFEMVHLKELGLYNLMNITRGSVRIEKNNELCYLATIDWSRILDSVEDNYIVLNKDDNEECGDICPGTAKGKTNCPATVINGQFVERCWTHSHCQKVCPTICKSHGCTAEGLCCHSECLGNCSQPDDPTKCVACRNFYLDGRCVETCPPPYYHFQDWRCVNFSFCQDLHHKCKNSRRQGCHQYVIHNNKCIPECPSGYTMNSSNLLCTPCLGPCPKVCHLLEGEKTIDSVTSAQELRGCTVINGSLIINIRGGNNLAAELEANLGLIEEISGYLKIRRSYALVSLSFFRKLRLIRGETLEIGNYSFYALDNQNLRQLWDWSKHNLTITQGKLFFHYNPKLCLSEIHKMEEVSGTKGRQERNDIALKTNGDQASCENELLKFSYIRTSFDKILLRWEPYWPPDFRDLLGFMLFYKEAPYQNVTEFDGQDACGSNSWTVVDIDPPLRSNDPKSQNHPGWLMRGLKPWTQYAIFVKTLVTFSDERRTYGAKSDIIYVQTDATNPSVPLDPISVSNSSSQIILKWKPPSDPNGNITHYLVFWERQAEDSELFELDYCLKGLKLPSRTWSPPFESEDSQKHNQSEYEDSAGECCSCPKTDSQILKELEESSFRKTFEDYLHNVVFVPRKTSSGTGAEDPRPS
Insulin receptor (Homo sapiens), sequence (P06213 763-1382 limits assumed): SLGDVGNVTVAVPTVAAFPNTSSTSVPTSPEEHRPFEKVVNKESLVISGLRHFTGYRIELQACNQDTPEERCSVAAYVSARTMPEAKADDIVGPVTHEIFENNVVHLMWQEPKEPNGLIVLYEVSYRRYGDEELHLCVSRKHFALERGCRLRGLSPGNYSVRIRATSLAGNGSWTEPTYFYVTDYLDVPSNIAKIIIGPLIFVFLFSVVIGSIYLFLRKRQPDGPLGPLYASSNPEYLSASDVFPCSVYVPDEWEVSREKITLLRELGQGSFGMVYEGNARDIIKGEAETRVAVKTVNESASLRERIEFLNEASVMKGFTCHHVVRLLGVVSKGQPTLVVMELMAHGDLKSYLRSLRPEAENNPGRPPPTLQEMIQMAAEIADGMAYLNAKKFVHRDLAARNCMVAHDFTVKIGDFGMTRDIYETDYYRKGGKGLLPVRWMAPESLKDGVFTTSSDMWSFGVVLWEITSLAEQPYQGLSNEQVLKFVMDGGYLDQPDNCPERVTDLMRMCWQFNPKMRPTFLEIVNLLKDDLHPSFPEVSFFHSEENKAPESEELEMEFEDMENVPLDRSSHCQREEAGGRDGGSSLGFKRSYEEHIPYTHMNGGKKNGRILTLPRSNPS
MAP/microtubule affinity-regulating kinase 3 (Homo sapiens), sequence (P27448 whole entry, looked up): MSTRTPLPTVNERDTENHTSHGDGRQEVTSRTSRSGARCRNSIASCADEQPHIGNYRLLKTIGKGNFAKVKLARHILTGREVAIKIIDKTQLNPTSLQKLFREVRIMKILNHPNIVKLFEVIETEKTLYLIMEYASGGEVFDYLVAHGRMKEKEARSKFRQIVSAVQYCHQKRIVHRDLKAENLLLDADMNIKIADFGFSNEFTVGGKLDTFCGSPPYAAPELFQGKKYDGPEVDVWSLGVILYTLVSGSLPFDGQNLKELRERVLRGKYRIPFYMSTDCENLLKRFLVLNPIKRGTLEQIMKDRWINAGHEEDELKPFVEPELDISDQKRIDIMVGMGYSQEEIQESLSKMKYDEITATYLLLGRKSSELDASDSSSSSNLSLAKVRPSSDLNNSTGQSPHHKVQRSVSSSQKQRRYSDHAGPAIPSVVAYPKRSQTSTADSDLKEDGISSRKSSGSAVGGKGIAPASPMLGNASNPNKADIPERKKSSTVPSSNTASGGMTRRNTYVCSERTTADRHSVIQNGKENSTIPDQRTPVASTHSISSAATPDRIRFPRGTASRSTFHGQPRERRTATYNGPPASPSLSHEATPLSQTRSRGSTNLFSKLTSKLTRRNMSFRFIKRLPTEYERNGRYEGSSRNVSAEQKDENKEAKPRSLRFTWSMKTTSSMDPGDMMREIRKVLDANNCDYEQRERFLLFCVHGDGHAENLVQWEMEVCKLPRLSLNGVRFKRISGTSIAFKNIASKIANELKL

Row | SMILES | inhibition [1] [%] | inhibition [2] [%] | inhibition [3] [%] | inhibition [4] [%] | inhibition [5] [%] | inhibition [6] [%] | inhibition [7] [%] | inhibition [8] [%] | inhibition [9] [%] | inhibition [10] [%] | inhibition [11] [%] | inhibition [12] [%] | inhibition [13] [%] | inhibition [14] [%] | inhibition [15] [%] | inhibition [16] [%] | inhibition [17] [%] | inhibition [18] [%] | inhibition [19] [%] | inhibition [20] [%] | also measured
1 | O=c1n(Cc2cncn2-c2cccc(Cl)c2)nc(-c2ccc(Cl)cc2)n1C[C@H](O)C(F)(F)F | 0 | 15.4 | -3.59 | -5.35 | 9.61 | 10.4 | -5.87 | 2.57 | 2.21 | 7.39 | -0.21 | 12.7 | 3.57 | -0.67 | 6.15 | 8.74 | -7.87 | 3.66 | 6.86 | 1 | inhibition [21]: 3.23%; inhibition [22]: -9.36%; inhibition [23]: 19.2%; inhibition [24]: -2.72%; inhibition [25]: 0.29%; inhibition [26]: 2.04%; inhibition [27]: -2.95%; inhibition [28]: -2.58%; inhibition [29]: -2.75%; inhibition [30]: 3%; inhibition [31]: 1.8%
2 | C[C@H](O)c1nc(Cn2nc(-c3ccc(Cl)cc3)n(C[C@H](O)C(F)(F)F)c2=O)nn1-c1cccc(Cl)c1 [PECAVAPTAN] | 9 | 15.8 | -2.13 | -3.02 | 27.7 | 2.48 | 0.32 | 3.3 | -4.02 | 1.81 | -5.35 | 11.2 | -1.95 | 1.32 | 6.36 | -1.72 | -9.41 | 1.85 | 2.49 | 4 | inhibition [21]: 2.01%; inhibition [22]: -6.27%; inhibition [23]: 5.58%; inhibition [24]: -6.93%; inhibition [25]: 2.68%; inhibition [26]: 0.69%; inhibition [27]: 1.11%; inhibition [28]: -3.44%; inhibition [29]: 2.09%; inhibition [30]: 2%; inhibition [31]: 5.09%
